Experimental data as given in US12180159B2, “Activators of the unfolded protein response” (The Board of Trustees of the University of Illinois, priority 2018, dated 2024).

Columns and labels:
[1] = test system: MCF-7 and TYS-Luc cells; assay: Cell death with 2-APB or thapsigargin (Trypan Blue exclusion); assay type: cell-based, human; conditions: 2-APB
Description: ERα positive MCF-7 and TYS-Luc were treated with DMSO vehicle (Veh), or BHPI or (−)-105 plus or minus 2-APB for the indicated times. Cells death was determined using the instrument-based Trypan Blue exclusion assay. […] This is consistent with (−)-105 inducing powerful lethal activation of the anticipatory UPR pathway. (n=3±SEM). […] TYS-Luc cells were maintained in DMSO vehicle (Veh) or BHPI, or (−)-105 with or without thapsigargin (THG) for the indicated times. Blocking the decline in ATP levels (FIG. 19) with THG inhibited (−)-105-induced cell death. […] (n=3±SEM).

[2] = test system: MCF-7 ERα Y537S-luciferase cells; assay: Long-term cell culture experiment, MCF-7Y537S cells; assay type: cell-based, human; conditions: conditions as FIG. 15
[3] = test system: TDG cells (T47DERαD538G); assay: Trypan Blue exclusion cell death assay, TDG cells; assay type: cell-based, human; conditions: 24 hours; for killing of TDG-Luc cells: dose response
From the text: (§1) TRYPAN BLUE: For decades, viable cells have been measured by their ability to exclude the dye Trypan Blue. […] Dead cells, which have lost membrane integrity, take up the dye and are blue. Thus, the percentage of dead cells is the percentage of cells that are Trypan Blue positive out of the total cell population. Quantitative assessment of Trypan Blue uptake uses a cell counter from Fisher. Since the assay is instrument based, there is no observer bias in determining the percentage of Trypan Blue positive cells.
(§2) TRYPAN BLUE ASSAYS: Assays are performed on cells in 6 well plates: 300,000 cells are plated in each well of a 6 well plate in 3 ml of medium. After 24 hours, the DMSO vehicle or the indicated compound is added (in 1000th of the vol.) The cells incubated for an additional 24 hours, and then harvested in 0.25 ml of trypsin, followed after harvest by 0.75 ml of medium. The cells are spun down and resuspended in 100-200 μl of medium left that is over the cell pellet (resuspend cells by pipetting up and down a few times). Add 10 μl to 10 μl of trypan blue. Then 10 μl is inserted into the counting slide. After inserting the slide into the Fisher TC20 counting is automatic (these many cells are needed because an accurate ratio of Trypan Blue positive to Trypan Blue negative cells requires about 200 cells in the field the instrument counts).
The Trypan Blue cell death assay was used to evaluate the ability of the active enantiomer of C-105 [(−)-105] to kill ERα positive TDG-Luc cells. For all studies, 300,000 TDG-Luc cells/well in 10% FBS were plated in a 6 well plate in triplicate. 24 hours after plating, the indicated concentrations the active enantiomer of (−)-105, or BHPI (top) ICI, or OHT (Lower left) or (+)-105 (lower right) were added. After 24 hours, the cells were harvested, and the % dead cells was determined by automated Trypan Blue exclusion using the Countess II automated hemocytometer. Percentage of viable cells was calculated by doing 100−(Cell Death %). (n=3±SEM).
TDG cells were incubated for 24 hours with 75 nM of BHPI or 75 nM of each of the indicated test compounds: 4, 6 and (±)-105 (enantiomers not separated). Cell death was determined using the instrument-based Trypan Blue exclusion assay. Structures are in the Synthesis section. […] (n=3±SEM).

[4] = test system: ERα positive and ERα negative cell lines; assay type: cell-based
Description: ERα positive MCF-7 breast cancer, Caov-3 ovarian cancer and ECC-1 uterine cancer cells and ERα negative MDA-MB-231 human breast cancer cells and HeLa, human cervical carcinoma cells and MCF-10A human mammary epithelial cells were plated at 10,000 cells/well (96 well plate) in 50 μl of medium. After about 18 hours, an additional 50 μl of medium containing 2× the desired final concentration of the test compound (C-105) was added to each well (final vol. 100 μl/well). After 24 hours Alamar Blue reagent was added and fluorescence in the wells was read after 1 hour (BMG PheraStar Microplate Reader). % relative death was determined by setting the reading for 10,000 nM raptinal-treated cells to 100% dead cells and the reading for vehicle-treated cells to 0% dead cells. (Data is the average±SEM of 3 independent experiments with 5 biological replicates for each sample within each independent experiment.)
FIG. 3 compares the ability of (±)-105 to kill ERα positive and ERα negative cells. The dose response tests the ability of (±)-105 to rapidly kill ERα positive and ERα negative cells. […] After 24 hours Alamar Blue reagent was added and fluorescence in the wells was read. % relative death was determined by setting the reading for […] raptinal-treated cells to 100% dead cells and the reading for vehicle-treated cells to 0% dead cells. […]

[5] = test system: MCF-7 tumors; assay: MCF-7 orthotopic tumor model; assay type: in vivo, mouse; conditions: mouse, in vivo
Description: FIG. 39. SERK-F6 eradicates wild-type ERα tumors via hyperactivation of aUPR. a, MCF-7 orthotopic tumors were established in Nu/J ovariectomized mice supplemented with a 60 day E2 pellet (0.36 mg) and grown to ˜400 mm^3 (28 days to establish), randomized, then treated with vehicle daily (n=3), vehicle weekly (n=3), fulv. weekly (5 mg/mouse, s.c., n=6), SERK-F6 daily (10 or 40 mg/kg p.o.). Vehicle arms were averaged. p values: *: p<0.05, **: p<0.01, ***: p<0.001, ****: p<0.0001. Tumor images were taken at the end of the study (day 21) and are representative of all tumors (n=6). b-e, MCF-7 cells were orthotopically bi-laterally grafted and tumors were grown until total tumor burden was ˜ 400 mm^3 prior to daily treatment with vehicle or SERK-F6 (40 mg/kg p.o.). Mice (n=5 per arm) were sacrificed after 3 days (b,c) and 7 days (d,e) and tumors harvested. […] Vinculin (Vin) was used as a loading control. […] Error bars represent S.E.M.
FIG. 40. SERK-F6 is tolerated, reaches biologically relevant concentrations, and crosses the blood-brain barrier in vivo. a, Serum concentrations of SERK-F6 after indicated doses, route of administration, and time. Concentration was determined via LC/MS/MS analysis. […] AUC: Area Under the Curve, Cmax: maximum concentration, t1/2: half-life. c,d, Mice (CD-1) were treated with the indicated doses and times, then sacrificed and their serum and brains collected. Concentrations were determined via LC/MS/MS analysis. […] Treatment arms: vehicle daily (n=3), vehicle weekly (n=3), fulv. weekly (5 mg/mouse, s.c., n=6), SERK-F6 daily (10 or 40 mg/kg p.o.). Vehicle arms were combined. g, Mass of tumors harvested from mice. h, observed murine weight during this MCF-7 study (n=6). i,j, Tumor measurements for MCF-7 bilateral orthotopic model (n=4-5).
To probe the efficacy of SERK-F6 for killing ERα positive tumors, large MCF-7 tumors were grown and then intervened with therapy. […] The mice were then sacrificed prior to complete tumor eradication.

[6] = test system: TYS and TDG breast cancer cells; assay: Killing of TYS and TDG breast cancer cells by endocrine therapy drugs; assay type: cell-based, human
[7] = test system: T47D, TYS-4 and TDG-1 cells; assay: MTS proliferation assay, T47D, TYS and TDG cells; assay type: cell-based, human; conditions: 4 days
Description: FIG. 30 compares the ability of BHPI and test compounds to inhibit proliferation of T47D, TYS and TDG cells. T47D cells were in medium containing 10 FBS (which contains estrogen), TYS-4 and TDG-1 cells were in medium containing 10% cd-FBS (estrogen depleted). Cells are plated at 2,000 cells/well in 96 well plates. After 24 hours in medium containing FBS or charcoal-dextran treated FBS (depleted of endogenous estrogens), the indicated concentration of each compound (in DMSO at 1/1000th of the volume of medium) was added. After 2 days the medium was changed, and the compounds were added again. After 2 additional days (4 days total) MTS assays are used to evaluate cell proliferation. (n=6±S.E.M.).

[8] = test system: ERα Negative MCF-10A cells; assay: Trypan Blue exclusion cell death assay, MCF-10A cells; assay type: cell-based; conditions: 75 nM, 24 hours
From the text: as §1, §2
In FIG. 28, neither the test compounds nor BHPI kill non-tumorigenic ERα Negative MCF-10A breast cells. ERα Negative MCF-10A cells were maintained for 24 hours in DMSO vehicle or 75 nM of BHPI or 75 nM of each of the indicated test compounds: 4, 6 and 105. Cell death was determined using the instrument-based Trypan Blue exclusion assay. (n=3±SEM).

[9] = test system: Caov-3 cells; assay: Cell death of Caov-3 ovarian cancer cells (automated Trypan Blue exclusion); assay type: cell-based, human; conditions: 24 hours
Description: FIG. 33. 105, but not BHPI, kills therapy-resistant ovarian CaOV-3 ovarian cancer cells. (±)-105; Cell death assay: Automated Trypan Blue exclusion. (24 hours post (±)-105) FIG. 34. (−)105 nearly eradicates ER+ drug-resistant tumors. Orthotopic breast cancer model, TYS-Luc cells, 40 mg/kg (−)-105 i.p., daily. 7 d Post injection image is a much longer exposure at higher gain than before injection image.
Caov3: Drug resistant ERα positive ovarian cancer cells. […] These cells are completely resistant to tamoxifen and fulvestrant and partially resistant to cisplatin and paclitaxel.

[10] = test system: TYS cells (T47DERαY537S); assay: Trypan Blue exclusion cell death assay, TYS cells; assay type: cell-based, human; conditions: 24 hours
From the text: as §1, §2
TYS cells were incubated for 24 hours with 35 nM of BHPI or 35 nM of each of the indicated test compounds: 2, 4, and 105. Cell death was determined using the instrument-based Trypan Blue exclusion assay. (n=3±SEM).
TYS cells were incubated for 24 hours with 50 nM of BHPI or 50 nM of each of the indicated test compounds: 4, 6 and 105. Cell death was determined using the instrument-based Trypan Blue exclusion assay. (n=3±SEM).

[11] = test system: OVCAR-3 cells; conditions: OVCAR-3 orthotopic xenograft

NCCOB(c1ccccc1)c1ccccc1 [2-APB]
effect on (−)-105-induced cell death ([1]; 45 and 60 min.): partially blocked | effect on (−)-105-induced cell death ([1]; 30 minutes): nearly completely blocked

O=C1Nc2c(C(F)(F)F)cccc2C1(c1ccc(O)cc1)c1ccc(OC(F)(F)F)cc1 (single isomer, unassigned; (+)) [(+)-105, 3-(4-hydroxyphenyl)-3-(4-(trifluoromethoxy)phenyl)-7-(trifluoromethyl)indolin-2-one]
effect on MCF-7Y537S cells in long-term experiments [2]: inactive | killing of TDG-Luc cells [3]: inactive and does not kill | effect of the inactive enantiomer in ERα positive and ERα negative cell lines [4]: ineffective and not toxic

C[C@]12CC[C@@H]3c4ccc(O)cc4C[C@@H](CCCCCCCCC[S+]([O-])CCCC(F)(F)C(F)(F)F)[C@H]3[C@@H]1CC[C@@H]2O (some centres unmarked) [fulvestrant, reference compound]
effect on large established MCF-7 tumors [5]: dramatic effects against these large and established tumors are not obtained | ability to kill TYS and TDG breast cancer cells [6]: no ability at all to kill | killing of TDG-Luc cells [3]: do not kill

COc1ccc(C2(c3ccc(O)cc3)C(=O)Nc3c(C)cccc32)cc1 (centres unmarked) [compound 2, 3-(4-hydroxyphenyl)-3-(4-methoxyphenyl)-7-methylindolin-2-one]
effectiveness in killing ERα positive breast cancer cells compared to BHPI [7]: more effective than BHPI

Cc1cccc2c1NC(=O)C2(c1ccc(O)cc1)c1ccc(OC(F)(F)F)cc1 (centres unmarked) [compound 6, 3-(4-hydroxyphenyl)-7-methyl-3-(4-(trifluoromethoxy)phenyl)indolin-2-one]
effectiveness in killing ERα positive breast cancer cells compared to BHPI [7]: more effective than BHPI | death of ERα Negative MCF-10A cells [8]: neither BHPI nor any of the test compounds induce significant death

O=C1Nc2c(C(F)(F)F)cccc2C1(c1ccc(O)cc1)c1ccc(OC(F)(F)F)cc1 (racemic) [(±)-105, 3-(4-hydroxyphenyl)-3-(4-(trifluoromethoxy)phenyl)-7-(trifluoromethyl)indolin-2-one]
effectiveness in killing ERα positive breast cancer cells compared to BHPI [7]: more effective than BHPI | ability to kill TDG cells compared to BHPI ([3]; 75 nM): greatly increased ability to kill | death of ERα Negative MCF-10A cells [8]: neither BHPI nor any of the test compounds induce significant death | killing of Caov-3 ovarian cancer cells [9]: kills | ability to kill TYS cells compared to BHPI ([10]; 35 nM): greatly increased ability to kill | ability to kill TYS cells compared to BHPI ([10]; 50 nM): increased ability to kill | selectivity for ERα positive cancer cell lines ([4]; 0-10,000 nM, 24 hours): selective for ERα positive cancer cell lines

CC(=O)O[C@H]1C(=O)[C@@]2(C)[C@H]([C@H](OC(=O)c3ccccc3)[C@]3(O)C[C@H](OC(=O)[C@H](O)[C@@H](NC(=O)c4ccccc4)c4ccccc4)C(C)=C1C3(C)C)[C@]1(OC(C)=O)CO[C@@H]1C[C@@H]2O [paclitaxel]
effect on tumor growth / tumors [11]: ineffective

CC/C(=C(\c1ccccc1)c1ccc(OCCN(C)C)cc1)c1ccccc1 [tamoxifen]
ability to kill TYS and TDG breast cancer cells [6]: no ability at all to kill
